Test results reported in PubChem BioAssay AID1963432 (Molecular Pharmacology Branch, DTP, NCI, 2024).

System: SYO-1 complex spheroid growth, percent test/control
Test: Anticancer human tumor SYO-1 cell line growth inhibition [Asc];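 note: compound exposure lasted 7 days after spheroids grew 3 days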;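 for viability, T/C: 100% = DMSO vehicle control viability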
Details: for IC50: curve of first compound; for viability, T/C: stronger effect = lower value
Method in brief: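 Complex solid-tumor spheroids incorporating human endothelial and mesenchymal stem cells received single agents or combinations over half-log dilution ranges anchored to clinical Cmax.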

[1] = second compound 0.00949 µM, first compound 0.0316 µM
[2] = second compound 0.00949 µM, first compound 0.1 µM
[3] = second compound 0.00949 µM, first compound 0.316 µM
[4] = second compound 0.00949 µM, first compound 1 µM
[5] = second compound 0.00949 µM, first compound 3.16 µM
[6] = second compound 0.00949 µM, first compound 10 µM
[7] = second compound 0.03 µM, first compound 0.0316 µM
[8] = second compound 0.03 µM, first compound 0.1 µM
[9] = second compound 0.03 µM, first compound 0.316 µM
[10] = second compound 0.03 µM, first compound 1 µM
[11] = second compound 0.03 µM, first compound 3.16 µM
[12] = second compound 0.03 µM, first compound 10 µM
[13] = second compound 0.0949 µM, first compound 0.0316 µM
[14] = second compound 0.0949 µM, first compound 0.1 µM
[15] = second compound 0.0949 µM, first compound 0.316 µM
[16] = second compound 0.0949 µM, first compound 1 µM
[17] = second compound 0.0949 µM, first compound 3.16 µM
[18] = second compound 0.0949 µM, first compound 10 µM
[19] = second compound 0.3 µM, first compound 0.0316 µM
[20] = second compound 0.3 µM, first compound 0.1 µM
[21] = second compound 0.3 µM, first compound 0.316 µM
[22] = second compound 0.3 µM, first compound 1 µM
[23] = second compound 0.3 µM, first compound 3.16 µM
[24] = second compound 0.3 µM, first compound 10 µM
[25] = second compound 0.949 µM, first compound 0.0316 µM
[26] = second compound 0.949 µM, first compound 0.1 µM
[27] = second compound 0.949 µM, first compound 0.316 µM
[28] = second compound 0.949 µM, first compound 1 µM
[29] = second compound 0.949 µM, first compound 3.16 µM
[30] = second compound 0.949 µM, first compound 10 µM
[31] = second compound 3 µM, first compound 0.0316 µM
[32] = second compound 3 µM, first compound 0.1 µM
[33] = second compound 3 µM, first compound 0.316 µM
[34] = second compound 3 µM, first compound 1 µM
[35] = second compound 3 µM, first compound 3.16 µM
[36] = second compound 3 µM, first compound 10 µM

`C=C(F)C(=O)N1CCN(c2nc(OCC3CCCN3C)nc3c2CCN(c2cccc4cccc(Cl)c24)C3)CC1CC#N` (stereo unspecified) + CCN1C(C(=O)NC23CCC(C(=O)O)(CC2)CC3)C(c2cccc(Cl)c2F)C2(C(=O)Nc3cc(Cl)ccc32)C12CCCCC2 gave an IC50 (second compound 0.00949 µM) of 5020 nM, an IC50 (second compound 0.03 µM) of 1860 nM and an IC50 (second compound 0.0949 µM) of 1620 nM. For the same compound, the IC50 (second compound 0.3 µM) was under 31.6 nM, the IC50 (second compound 0.949 µM) was under 31.6 nM and the IC50 (second compound 3 µM) was under 31.6 nM. For the same compound, the viability, T/C [1] was 101%, the viability, T/C [2] was 99.9% and the viability, T/C [3] was 101%. It also gave a viability, T/C [4] of 109%, a viability, T/C [5] of 83.3% and a viability, T/C [6] of 0.4%. The viability, T/C [7] was 96.9%, the viability, T/C [8] was 95.3% and the viability, T/C [9] was 101%. For the same compound, the viability, T/C [10] was 111%, the viability, T/C [11] was 6.35% and the viability, T/C [12] was 0.68%. It also gave a viability, T/C [13] of 87.1%, a viability, T/C [14] of 81% and a viability, T/C [15] of 83.8%. It also gave a viability, T/C [16] of 88.2%, a viability, T/C [17] of 1.01% and a viability, T/C [18] of 0.26%. For the same compound, the viability, T/C [19] was 31.3%, the viability, T/C [20] was 27.9% and the viability, T/C [21] was 22.7%. The viability, T/C [22] was 23.9%, the viability, T/C [23] was 1.47% and the viability, T/C [24] was 0.37%. It also gave a viability, T/C [25] of 4.04%, a viability, T/C [26] of 3.25% and a viability, T/C [27] of 2.38%. The viability, T/C [28] was 1.49%, the viability, T/C [29] was 0.82% and the viability, T/C [30] was 0.26%. The viability, T/C [31] was 2.61%, the viability, T/C [32] was 1.39% and the viability, T/C [33] was 1.16%. The viability, T/C [34] was 0.97%, the viability, T/C [35] was 0.49% and the viability, T/C [36] was 0.4%.

For `C=CC(=O)N1CCN(c2nc(=O)n(-c3c(C)ccnc3C(C)C)c3nc(-c4c(O)cccc4F)c(F)cc23)C(C)C1` (stereo unspecified) + CCN1C(C(=O)NC23CCC(C(=O)O)(CC2)CC3)C(c2cccc(Cl)c2F)C2(C(=O)Nc3cc(Cl)ccc32)C12CCCCC2, the IC50 (second compound 0.00949 µM) was over 10000 nM, the IC50 (second compound 0.03 µM) was over 10000 nM and the IC50 (second compound 0.0949 µM) was over 10000 nM. The IC50 (second compound 0.3 µM) was under 31.6 nM, the IC50 (second compound 0.949 µM) was under 31.6 nM and the IC50 (second compound 3 µM) was under 31.6 nM. For the same compound, the viability, T/C [1] was 101%, the viability, T/C [2] was 104% and the viability, T/C [3] was 103%. It also gave a viability, T/C [4] of 103%, a viability, T/C [5] of 92% and a viability, T/C [6] of 89.1%. For the same compound, the viability, T/C [7] was 98%, the viability, T/C [8] was 94.7% and the viability, T/C [9] was 96.7%. The viability, T/C [10] was 103%, the viability, T/C [11] was 97.6% and the viability, T/C [12] was 81.8%. It also gave a viability, T/C [13] of 78.5%, a viability, T/C [14] of 84% and a viability, T/C [15] of 76.7%. It also gave a viability, T/C [16] of 79.4%, a viability, T/C [17] of 75.9% and a viability, T/C [18] of 56.2%. The viability, T/C [19] was 29.8%, the viability, T/C [20] was 25.3% and the viability, T/C [21] was 25.2%. It also gave a viability, T/C [22] of 20.8%, a viability, T/C [23] of 21.3% and a viability, T/C [24] of 12.2%. The viability, T/C [25] was 3.03%, the viability, T/C [26] was 4.04% and the viability, T/C [27] was 2.34%. It also gave a viability, T/C [28] of 2.88%, a viability, T/C [29] of 2.48% and a viability, T/C [30] of 2.88%. The viability, T/C [31] was 1.34%, the viability, T/C [32] was 1.23% and the viability, T/C [33] was 1.3%. For the same compound, the viability, T/C [34] was 1.29%, the viability, T/C [35] was 1.12% and the viability, T/C [36] was 1.29%.

With `CNC(C)C(=O)NC1CN(S(=O)(=O)c2cccc(S(=O)(=O)N3CCC4CCC(C(=O)NC(c5ccccc5)c5ccccc5)N4C(=O)C(NC(=O)C(C)NC)C3)c2)CCC2CCC(C(=O)NC(c3ccccc3)c3ccccc3)N2C1=O` (stereo unspecified) + CCN1C(C(=O)NC23CCC(C(=O)O)(CC2)CC3)C(c2cccc(Cl)c2F)C2(C(=O)Nc3cc(Cl)ccc32)C12CCCCC2 the IC50 (second compound 0.00949 µM) was over 1000 nM, the IC50 (second compound 0.03 µM) was over 1000 nM and the IC50 (second compound 0.0949 µM) was over 1000 nM. It also gave an IC50 (second compound 0.3 µM) of under 3.16 nM, an IC50 (second compound 0.949 µM) of under 3.16 nM and an IC50 (second compound 3 µM) of under 3.16 nM. It also gave a viability, T/C (second compound 0.00949 µM, first compound 0.00316 µM) of 109%, a viability, T/C (second compound 0.00949 µM, first compound 0.01 µM) of 104% and a viability, T/C [1] of 104%. The viability, T/C [2] was 112%, the viability, T/C [3] was 113% and the viability, T/C [4] was 98.7%. It also gave a viability, T/C (second compound 0.03 µM, first compound 0.00316 µM) of 99.2%, a viability, T/C (second compound 0.03 µM, first compound 0.01 µM) of 99.9% and a viability, T/C [7] of 99.2%. The viability, T/C [8] was 105%, the viability, T/C [9] was 101% and the viability, T/C [10] was 96.6%. The viability, T/C (second compound 0.0949 µM, first compound 0.00316 µM) was 85.7%, the viability, T/C (second compound 0.0949 µM, first compound 0.01 µM) was 82.6% and the viability, T/C [13] was 76.7%. The viability, T/C [14] was 75.3%, the viability, T/C [15] was 81.2% and the viability, T/C [16] was 70.6%. It also gave a viability, T/C (second compound 0.3 µM, first compound 0.00316 µM) of 26.2%, a viability, T/C (second compound 0.3 µM, first compound 0.01 µM) of 20% and a viability, T/C [19] of 16.1%. It also gave a viability, T/C [20] of 15.6%, a viability, T/C [21] of 16% and a viability, T/C [22] of 13.4%. It also gave a viability, T/C (second compound 0.949 µM, first compound 0.00316 µM) of 4.14%, a viability, T/C (second compound 0.949 µM, first compound 0.01 µM) of 1.95% and a viability, T/C [25] of 1.29%. The viability, T/C [26] was 1.74%, the viability, T/C [27] was 0.96% and the viability, T/C [28] was 0.61%. The viability, T/C (second compound 3 µM, first compound 0.00316 µM) was 1.42%, the viability, T/C (second compound 3 µM, first compound 0.01 µM) was 1.29% and the viability, T/C [31] was 0.76%. It also gave a viability, T/C [32] of 1.16%, a viability, T/C [33] of 0.78% and a viability, T/C [34] of 0.82%.
